Results on 24 compounds are retold here after patent US20060229308A1, “Substituted pyrirmidin-4-ylamine analogues as vanilloid receptor ligands” (Neurogen Corporation, priority 2003, published 2006).

For the first assay, the target named is T1, human capsaicin receptor (Homo sapiens, UniProt Q8NER1).
T1 construct: transfected with the pBK-CMV expression construct encoding the full length human capsaicin receptor using standard methods; expressed in transfected cells
T1 sequence (Q8NER1 whole entry): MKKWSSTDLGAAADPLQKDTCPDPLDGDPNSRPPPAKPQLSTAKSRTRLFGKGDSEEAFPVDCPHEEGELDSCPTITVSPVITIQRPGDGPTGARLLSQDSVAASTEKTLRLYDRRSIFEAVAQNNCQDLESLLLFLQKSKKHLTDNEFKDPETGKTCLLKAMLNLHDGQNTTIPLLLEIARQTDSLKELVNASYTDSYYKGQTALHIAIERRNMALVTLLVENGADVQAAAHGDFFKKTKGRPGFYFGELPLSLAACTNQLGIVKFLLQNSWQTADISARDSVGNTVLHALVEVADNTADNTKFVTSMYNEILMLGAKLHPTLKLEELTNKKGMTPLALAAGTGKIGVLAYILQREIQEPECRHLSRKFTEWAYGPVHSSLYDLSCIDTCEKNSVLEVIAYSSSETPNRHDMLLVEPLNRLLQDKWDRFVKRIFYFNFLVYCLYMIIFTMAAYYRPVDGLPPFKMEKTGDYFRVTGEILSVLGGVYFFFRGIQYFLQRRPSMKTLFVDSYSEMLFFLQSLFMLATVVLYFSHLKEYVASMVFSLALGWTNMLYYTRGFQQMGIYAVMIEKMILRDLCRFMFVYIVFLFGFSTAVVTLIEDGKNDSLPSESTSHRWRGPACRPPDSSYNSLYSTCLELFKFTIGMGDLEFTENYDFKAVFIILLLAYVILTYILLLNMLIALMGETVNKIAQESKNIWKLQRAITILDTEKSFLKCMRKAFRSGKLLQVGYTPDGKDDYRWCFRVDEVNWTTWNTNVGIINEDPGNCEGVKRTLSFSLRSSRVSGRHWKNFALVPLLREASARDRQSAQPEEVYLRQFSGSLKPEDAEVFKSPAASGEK
The assay can be described thus: Calcium mobilization assay, agonist response. Conditions: capsaicin positive control, calcium mobilization in cells expressing human capsaicin receptor; read-out: approximate EC90 concentration. The class given is cell-based. The method, then: Cells transfected with expression plasmids (as described in Example 4) and thereby expressing human capsaicin receptor are seeded and grown to 70-90% confluency in FALCON black-walled, clear-bottomed 96-well plates (#3904, BECTON-DICKINSON, Franklin Lakes, N.J.). The culture medium is emptied from the 96 well plates and FLUO-3 AM calcium sensitive dye (Molecular Probes, Eugene, Oreg.) is added to each well (dye solution: 1 mg FLUO-3 AM, 440 μL DMSO and 440 μl 20% pluronic acid in DMSO, diluted 1:250 in Krebs-Ringer HEPES (KRH) buffer (25 mM HEPES, 5 mM KCl, 0.96 mM NaH2PO4, 1 mM MgSO4, 2 mM CaCl2, 5 mM glucose, 1 mM probenecid, pH 7.4), 50 μl diluted solution per well). […]
To measure the ability of a test compound to agonize or antagonize a calcium mobilization response in cells expressing capsaicin receptors to capsaicin or other vanilloid agonist, the EC50 of the agonist capsaicin is first determined. […] Capsaicin-induced calcium mobilization is monitored using either FLUOROSKAN ASCENT (Labsystems; Franklin, Mass.) or FLIPR (fluorometric imaging plate reader system; Molecular Devices, Sunnyvale, Calif.) instruments. […] In this equation, y is the maximum fluorescence signal, x is the concentration of the agonist or antagonist (in this case, capsaicin), a is the Emax, b corresponds to the EC50 value and c is the Hill coefficient. […]
Turning to `COc1cc(CNC(=O)CCCC/C=C/C(C)C)ccc1O` [capsaicin], the EC90 was around 100 nM.

Another assay deals with T1, human capsaicin receptor. The assay can be described thus: Calcium mobilization assay, determination of antagonist activity. Format: cell-based. Conditions: 50% decrease in fluorescence response of cells expressing human capsaicin receptor exposed to capsaicin; Example 6. The source says: This Example illustrates the preparation of VR1-transfected cells and VR1-containing membrane preparations for use in capsaicin binding assays (Example 5).
A cDNA encoding full length human capsaicin receptor (SEQ ID NO:1, 2 or 3 of U.S. Pat. No. 6,482,611) was subcloned in the plasmid pBK-CMV (Stratagene, La Jolla, Calif.) for recombinant expression in mammalian cells.
Human embryonic kidney (HEK293) cells were transfected with the pBK-CMV expression construct encoding the full length human capsaicin receptor using standard methods. The transfected cells were selected for two weeks in media containing G418 (400 μg/ml) to obtain a pool of stably transfected cells. Independent clones were isolated from this pool by limiting dilution to obtain clonal stable cell lines for use in subsequent experiments.
This Example illustrates representative calcium mobilization assays for use in evaluating test compounds for agonist and antagonist activity.
Cells transfected with expression plasmids (as described in Example 4) and thereby expressing human capsaicin receptor are seeded and grown to 70-90% confluency in FALCON black-walled, clear-bottomed 96-well plates (#3904, BECTON-DICKINSON, Franklin Lakes, N.J.). The culture medium is emptied from the 96 well plates and FLUO-3 AM calcium sensitive dye (Molecular Probes, Eugene, Oreg.) is added to each well (dye solution: 1 mg FLUO-3 AM, 440 μL DMSO and 440 μl 20% pluronic acid in DMSO, diluted 1:250 in Krebs-Ringer HEPES (KRH) buffer (25 mM HEPES, 5 mM KCl, 0.96 mM NaH2PO4, 1 mM MgSO4, 2 mM CaCl2, 5 mM glucose, 1 mM probenecid, pH 7.4), 50 μl diluted solution per well). Plates are covered with aluminum foil and incubated at 37° C. for 1-2 hours in an environment containing 5% CO2. After the incubation, the dye is emptied from the plates, and the cells are washed once with KRH buffer, and resuspended in KRH buffer.
To measure the ability of a test compound to agonize or antagonize a calcium mobilization response in cells expressing capsaicin receptors to capsaicin or other vanilloid agonist, the EC50 of the agonist capsaicin is first determined. An additional 20 μl of KRH buffer and 1 μl DMSO is added to each well of cells, prepared as described above. 100 μl capsaicin in KRH buffer is automatically transferred by the FLIPR instrument to each well. Capsaicin-induced calcium mobilization is monitored using either FLUOROSKAN ASCENT (Labsystems; Franklin, Mass.) or FLIPR (fluorometric imaging plate reader system; Molecular Devices, Sunnyvale, Calif.) instruments. Data obtained between 30 and 60 seconds after agonist application are used to generate an 8-point concentration response curve, with final capsaicin concentrations of 1 nM to 3 μM. […] software (Synergy Software, Reading, Pa.) is used to fit the data to the equation: y=a*(1/(1+(b/x)^c)) to determine the 50% excitatory concentration (EC50) for the response. In this equation, y is the maximum fluorescence signal, x is the concentration of the agonist or antagonist (in this case, capsaicin), a is the Emax, b corresponds to the EC50 value and c is the Hill coefficient. Determination of Agonist Activity
Test compounds are dissolved in DMSO, diluted in 20 μl KRH buffer so that the final concentration of test compounds in the assay well is between 1 μM and 5 μM, and added to cells prepared as described above. The 96 well plates containing prepared cells and test compounds are incubated in the dark, at room temperature for 0.5 to 6 hours. It is important that the incubation not continue beyond 6 hours. Just prior to determining the fluorescence response, 100 μl capsaicin in KRH buffer at twice the EC50 concentration determined as described above is automatically added by the FLIPR instrument to each well of the 96 well plate for a final sample volume of 200 μl and a final capsaicin concentration equal to the EC50. The final concentration of test compounds in the assay wells is between 1 μM and 5 μM.
Regarding `CC(C)(C)c1ccc(Nc2cc(-c3ccc(Cl)cc3)ncn2)cc1` [Compound 1, (4-tert-Butyl-phenyl)-[6-(4-chloro-phenyl)-pyrimidin-4-yl]-amine], the IC50 was at most 1000 nM.
On the same count and under the same terms, then `COc1ccccc1-c1cc(Nc2ccc(C(C)(C)C)cc2)ncn1` [Compound 2, (4-tert-Butyl-phenyl)-[6-(2-meth-oxy-phenyl)-pyrimidin-4-yl]-amine], with at most 1000 nM; and `COc1cccc(-c2cc(Nc3ccc(C(C)(C)C)cc3)ncn2)c1` [Compound 3, (4-tert-Butyl-phenyl)-[6-(3-meth-oxy-phenyl)-pyrimidin-4-yl]-amine], with at most 1000 nM.
`COc1ccc(-c2cc(Nc3ccc(C(C)(C)C)cc3)ncn2)cc1` [Compound 4, (4-tert-Butyl-phenyl)-[6-(4-meth-oxy-phenyl)-pyrimidin-4-yl]-amine]: the IC50 is at most 1000 nM.
On the same count and under the same terms, with `CC(C)(C)c1ccc(Nc2cc(-c3ccccc3C(F)(F)F)ncn2)cc1` [Compound 5, (4-tert-Butyl-phenyl)-[6-(2-tri-fluoromethyl-phenyl)-pyri-midin-4-yl]-amine] the figure was at most 1000 nM.
Regarding `CC(C)(C)c1ccc(Nc2cc(-c3cccc(F)c3)ncn2)cc1` [Compound 6, (4-tert-Butyl-phenyl)-[6-(3-fluoro-phenyl)-pyrimidin-4-yl]-amine], the IC50 was at most 1000 nM.
On the same count and under the same terms, with `Cc1cccc(-c2cc(Nc3ccc(C(C)(C)C)cc3)ncn2)c1` [Compound 7, (4-tert-Butyl-phenyl)-(6-m-tolyl-pyrimidin-4-yl)-amine] the figure was at most 1000 nM.
On to `CC(C)(C)c1ccc(Nc2cc(-c3cccc(OC(F)(F)F)c3)ncn2)cc1` [Compound 8, (4-tert-Butyl-phenyl)-[6-(3-tri-fluoromethoxy-phenyl)-pyri-midin-4-yl]-amine], for which the IC50 is at most 1000 nM.
As to `CCOc1cccc(-c2cc(Nc3ccc(C(C)(C)C)cc3)ncn2)c1` [Compound 9, (4-tert-Butyl-phenyl)-[6-(3-eth-oxy-phenyl)-pyrimidin-4-yl]-amine], the IC50 is at most 1000 nM.
On to `COc1cccc(-c2ncnc(Nc3ccc(C(C)(C)C)cc3)c2C)c1` [Compound 10, (4-tert-Butyl-phenyl)-[6-(3-meth-oxy-phenyl)-5-methyl-pyrimidin-4-yl]-amine], for which the half-maximal inhibitory concentration (IC50) is at most 1000 nM.
For `COc1cccc(-c2nc(COCC(C)C)nc(Nc3ccc(C(C)(C)C)cc3)n2)c1` [Compound 11, (4-tert-Butyl-phenyl)-[4-iso-butoxymethyl-6-(3-meth-oxy-phenyl)-[1,3,5]tri-azin-2-yl]-amine], the IC50 is at most 1000 nM.
Still for that read-out and setting: with `CCc1c(Nc2ccc(C(C)(C)C)cc2)ncnc1-c1cccc(OC)c1` [Compound 12, (4-tert-Butyl-phenyl)-[5-ethyl-6-(3-meth-oxy-phenyl)-pyrimi-din-4-yl]-amine] the figure was at most 1000 nM.
The same measure, in the same setting: then `CCc1c(Nc2ccc(C(F)(F)F)cc2)ncnc1-c1cccc(OC)c1` [Compound 13, [5-Ethyl-6-(3-methoxy-phenyl)-pyrimidin-4-yl]-(4-tri-fluoromethyl-phenyl)-amine], with at most 1000 nM; and `COc1cccc(-c2nc(C)nc(Nc3ccc(C(C)(C)C)cc3)c2C)c1` [Compound 14, (4-tert-Butyl-phenyl)-[6-(3-meth-oxy-phenyl)-2,5-di-methyl-pyrimidin-4-yl]-amine], with at most 1000 nM.
For the compound `COc1cccc(-c2nc(C)nc(Nc3ccc(C(F)(F)F)cc3)c2C)c1` [Compound 15, [6-(3-Methoxy-phenyl)-2,5-di-methyl-pyrimidin-4-yl]-(4-tri-fluoromethyl-phenyl)-amine], the IC50 is at most 1000 nM.
As to `COc1cncc(-c2ncnc(Nc3ccc(C(C)(C)C)cc3)c2C)c1` [Compound 16, (4-tert-Butyl-phenyl)-[6-(5-meth-oxy-pyridin-3-yl)-5-meth-yl-pyrimidin-4-yl]-amine], the IC50 was at most 1000 nM.
Take `COc1cccc(-c2ncnc(Nc3ccc(C(C)(C)C)cc3)c2N)c1` [Compound 17, N^4-(4-tert-Butyl-phenyl)-6-(3-meth-oxy-phenyl)-pyrimidine-4,5-di-amine]: the IC50 is at most 1000 nM.
Turning to `COc1cccc(-c2nc(N3CCOCC3)nc(Nc3ccc(C(F)(F)F)cc3)c2C)c1` [Compound 18, [6-(3-Methoxy-phenyl)-5-meth-yl-2-morpholin-4-yl-pyrimidin-4-yl]-(4-tri-fluoromethyl-phenyl)-amine], the IC50 was at most 1000 nM.
The same measure, in the same setting: with `COc1cccc(-c2nc(N3CCOCC3)nc(Nc3ccc(C(C)(C)C)cc3)c2C)c1` [Compound 19, (4-tert-Butyl-phenyl)-[6-(3-meth-oxy-phenyl)-5-methyl-2-mor-pholin-4-yl-pyrimidin-4-yl]-amine] the figure was at most 1000 nM; with `CC(C)(C)c1ccc(Nc2cc(-c3ccccc3)ncn2)cc1` [Compound 20, (4-tert-Butyl-phenyl)-(6-phenyl-pyrimidin-4-yl)-amine], at most 1000 nM.
Turning to `COc1ccc(-c2cc(Nc3ccc(C(C)(C)C)cc3)ncn2)cc1OC` [Compound 21, (4-tert-Butyl-phenyl)-[6-(3,4-di-methoxy-phenyl)-pyrimidin-4-yl]-amine], the 50% inhibitory concentration (IC50) is at most 1000 nM.
On the same count and under the same terms, with `COc1cccc(-c2ncnc(Nc3ccc(C(F)(F)F)cc3)c2N)c1` [Compound 23, 6-(3-Methoxy-phenyl)-N^4-(4-tri-fluoromethyl-phenyl)-pyrimi-dine-4,5-diamine] the figure was at most 1000 nM.
On the same count and under the same terms, then `COc1cccc(-c2ncnc(Nc3ccc(C4CCCCC4)cc3)c2N)c1` [Compound 24, N^4-(4-Cyclohexyl-phenyl)-6-(3-meth-oxy-phenyl)-pyrimi-dine-4,5-diamine], with at most 1000 nM.
